# Experiments:
# [1] = target: T1, LFA-1 (CD18/CD11a) binding to ICAM-1 (Homo sapiens, UniProt P05107+P20701); experiment: Assay to Determine Inhibition of LFA-1 Binding to ICAM-1; conditions: immunoaffinity purified LFA-1 on plate-bound sICAM-1, 37° C. for 1 h, dose-response curve
# T1 construct: endogenous in cells; host or cells: LFA-1: endogenous, immunopurified from human JY or SKW3 cell lysates. sICAM-1: made in house, secreted from transfected CHO DUX cells
# Text: This assay protocol is designed to study the direct antagonism, by a test compound, of the interaction of the CAM, ICAM-1 with the Leukointegrin CD18/CD11a (LFA-1).
# After collection and neutralization of fractions from the TS2/4 column, samples are pooled and precleared with Protein G agarose.
# An expression vector is created with a hamster dihydrofolate reductase gene, a neomycin-resistance marker, and the coding region of the sICAM-1 construct described above, along with the promoter, splice signals, and polyadenylation signal of the SV40 early region. The recombinant plasmid is transfected into CHO DUX cells using standard calcium phosphate methods. Cells are passaged in selective media (G418) and colonies secreting sICAM-1 are amplified using methotrexate. sICAM-1 is purified from serum-free media using traditional non-affinity chromatographic techniques, including ion exchange and size exclusion chromatography.
# LFA-1 binding to ICAM-1 is monitored by first incubating sICAM-1 at 40 μg/mL in Dulbecco's phosphate buffered saline with calcium and magnesium, additional 2 mM MgCl2 and 0.1 mM PMSF (Diluting Buffer) in a 96-well plate for 30 min at room temperature. Plates are then blocked by the addition of 2% (w/v) bovine serum albumin in Diluting Buffer for 37° C. for 1 h. Blocking solution is removed from wells, and test compounds are diluted and then added followed by the addition of approximately 25 ng of immunoaffinity purified LFA-1. The LFA-1 is incubated in the presence of test compound and ICAM-1 at 37° C. for 1 h. Wells are washed 3 times with Diluting Buffer. The bound LFA-1 is detected by the addition of a polyclonal antibody directed against a peptide corresponding to the CD18 cytoplasmic tail in a 1:100 dilution with Diluting Buffer and 1% BSA and allowed to incubate for 45 min at 37° C. Wells are washed 3 times with Diluting Buffer and the bound polyclonal antibody is detected by the addition of a 1:4000 dilution of horse radish peroxidase conjugated to goat immunoglobulin directed against rabbit immunoglobulin. This reagent is allowed to incubate for 20 min at 37° C., wells are washed as above and the substrate for the horse radish peroxidase is added to each well to develop a quantitative colorimetric signal proportional to the amount of LFA-1 bound to sICAM-1. […] The lack of the addition of LFA-1 to the binding assay is used as a background control for all samples. A dose-response curve is obtained for all test compounds.
# T1 sequence (P20701 26-1170): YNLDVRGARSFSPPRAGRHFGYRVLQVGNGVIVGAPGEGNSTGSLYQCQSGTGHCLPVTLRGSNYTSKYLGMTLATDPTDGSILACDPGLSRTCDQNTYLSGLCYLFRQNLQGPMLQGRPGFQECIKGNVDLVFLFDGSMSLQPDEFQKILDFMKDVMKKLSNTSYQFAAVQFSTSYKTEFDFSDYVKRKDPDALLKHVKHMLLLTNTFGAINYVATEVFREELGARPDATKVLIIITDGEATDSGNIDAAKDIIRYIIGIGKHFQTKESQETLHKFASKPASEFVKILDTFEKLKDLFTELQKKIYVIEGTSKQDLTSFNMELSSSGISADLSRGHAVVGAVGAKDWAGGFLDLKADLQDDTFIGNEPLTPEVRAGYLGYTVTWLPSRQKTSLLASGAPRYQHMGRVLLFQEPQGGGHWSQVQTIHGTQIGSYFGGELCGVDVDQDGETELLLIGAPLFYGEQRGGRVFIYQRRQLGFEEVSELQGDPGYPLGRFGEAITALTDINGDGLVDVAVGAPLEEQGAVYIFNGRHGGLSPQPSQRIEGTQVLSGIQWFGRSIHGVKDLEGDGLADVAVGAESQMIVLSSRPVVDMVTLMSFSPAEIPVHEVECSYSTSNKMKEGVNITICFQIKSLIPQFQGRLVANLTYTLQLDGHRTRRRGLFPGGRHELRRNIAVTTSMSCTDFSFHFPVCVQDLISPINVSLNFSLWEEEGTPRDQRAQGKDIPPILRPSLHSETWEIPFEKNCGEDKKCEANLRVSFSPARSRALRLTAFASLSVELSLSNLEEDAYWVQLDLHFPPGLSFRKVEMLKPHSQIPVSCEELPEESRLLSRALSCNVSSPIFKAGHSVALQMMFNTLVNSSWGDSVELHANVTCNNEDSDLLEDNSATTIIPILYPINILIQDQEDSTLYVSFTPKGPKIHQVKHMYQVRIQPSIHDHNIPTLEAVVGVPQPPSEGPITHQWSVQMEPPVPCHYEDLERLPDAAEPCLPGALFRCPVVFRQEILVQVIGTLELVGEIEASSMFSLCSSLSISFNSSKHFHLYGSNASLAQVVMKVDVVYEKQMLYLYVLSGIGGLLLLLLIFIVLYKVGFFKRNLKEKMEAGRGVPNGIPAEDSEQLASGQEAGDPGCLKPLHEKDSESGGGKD
# T1 sequence (P05107 23-769): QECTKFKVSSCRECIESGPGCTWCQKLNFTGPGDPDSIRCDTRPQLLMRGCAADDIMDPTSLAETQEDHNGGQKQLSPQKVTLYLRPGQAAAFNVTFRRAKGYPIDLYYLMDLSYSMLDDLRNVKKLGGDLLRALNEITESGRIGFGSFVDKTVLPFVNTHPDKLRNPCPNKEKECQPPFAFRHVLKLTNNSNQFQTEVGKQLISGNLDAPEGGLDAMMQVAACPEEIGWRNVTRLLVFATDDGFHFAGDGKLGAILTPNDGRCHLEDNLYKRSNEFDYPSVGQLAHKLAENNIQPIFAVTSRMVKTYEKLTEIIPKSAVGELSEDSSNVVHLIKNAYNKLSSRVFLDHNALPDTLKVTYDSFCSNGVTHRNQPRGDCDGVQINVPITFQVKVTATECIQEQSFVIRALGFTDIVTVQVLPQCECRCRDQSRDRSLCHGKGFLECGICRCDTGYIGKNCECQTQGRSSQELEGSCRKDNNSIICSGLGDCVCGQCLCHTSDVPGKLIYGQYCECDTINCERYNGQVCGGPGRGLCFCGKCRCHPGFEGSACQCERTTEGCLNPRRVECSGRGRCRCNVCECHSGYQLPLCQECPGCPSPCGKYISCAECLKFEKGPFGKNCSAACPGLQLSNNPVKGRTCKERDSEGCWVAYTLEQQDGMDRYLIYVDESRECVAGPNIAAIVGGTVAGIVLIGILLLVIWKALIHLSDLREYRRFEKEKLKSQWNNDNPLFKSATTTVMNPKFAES
SMILES,Kd [1] [nM],melting point [°C]
"O=C1C(Cc2ccc(Br)cc2)c2ccccc2N1c1cc(Cl)cc(Cl)c1 (centres unmarked) [Example 1, 3-(4-Bromobenzyl)-1-(3,5-dichlorophenyl)-1,3-dihydroindol-2-one]",> 10000,139 to 142
"CC1(Cc2ccc(Br)cc2)C(=O)N(c2cc(Cl)cc(Cl)c2)c2ccccc21 (centres unmarked) [Example 2, 3-(4-Bromobenzyl)-1-(3,5-dichlorophenyl)-3-methyl-1,3-dihydro-indol-2-one]",> 10000,–
"CC1(Cc2ccc(Br)cc2)C(=O)N(c2cc(Cl)cc(Cl)c2)c2ncccc21 (centres unmarked) [Example 3, 3-(4-Bromobenzyl)-1-(3,5-dichlorophenyl)-3-methyl-1,3-dihydropyrrolo[2,3-b]pyridin-2-one]",375,–
"CC1(Cc2ccc(C#N)cc2)C(=O)N(c2cc(Cl)cc(Cl)c2)c2ncccc21 (centres unmarked) [Example 5, 3-(4-cyanobenzyl)-1-(3,5-dichlorophenyl)-3-methyl-1,3-dihydropyrrolo[2,3-b]pyridin-2-one]",3530,–
"CC1(Cc2ccc(Br)cc2)C(=O)N(c2cc(Cl)cc(Cl)c2)c2cccc(O)c21 (centres unmarked) [Example 6, 3-(4-bromobenzyl)-1-(3,5-dichlorophenyl)-4-hydroxy-3-methyl-1,3-dihydroindol-2-one]",1790,225 to 227
"O=C1C(Cc2ccc(Br)cc2)c2cc(F)ccc2N1c1cc(Cl)cc(Cl)c1 (centres unmarked) [Example 7, 3-(4-bromobenzyl)-1-(3,5-dichlorophenyl)-5-fluoro-1,3-dihydroindol-2-one]",2710,178 to 179
"O=C(O)c1ccc2c(c1)N(c1cc(Cl)cc(Cl)c1)C(=O)C2Cc1ccc(Br)cc1 (centres unmarked) [Example 8, 3-(4-bromobenzyl)-1-(3,5-dichlorophenyl)-1,3-dihydroindol-2-one-6-carboxylic acid]",4890,264 to 266
"COc1cccc2c1C(Cc1ccccc1)C(=O)N2c1cc(Cl)cc(Cl)c1 (centres unmarked) [Example 9, 3-benzyl-1-(3,5-dichlorophenyl)-4-methoxy-1,3-dihydroindol-2-one]",705,138 to 140
"COc1cccc2c1C(Cc1cccc(Br)c1)C(=O)N2c1cc(Cl)cc(Cl)c1 (centres unmarked) [Example 10, 3-(3-bromobenzyl)-1-(3,5-dichlorophenyl)-4-methoxy-1,3-dihydroindol-2-one]",1080,142 to 144
"CC1(Cc2cccc(Br)c2)C(=O)N(c2cc(Cl)cc(Cl)c2)c2cccc(O)c21 (centres unmarked) [Example 11, 3-(3-bromobenzyl)-1-(3,5-dichlorophenyl)-4-hydroxy-3-methyl-1,3-dihydroindol-2-one]",2540,225 to 227
"O=C1C(Cc2ccccc2)c2c(O)cccc2N1c1cc(Cl)cc(Cl)c1 (centres unmarked) [Example 12, 3-benzyl-1-(3,5-dichlorophenyl)-4-hydroxy-1,3-dihydroindol-2-one]",1310,181 to 185
"COc1ccc2c(c1)C(Cc1ccccc1)C(=O)N2c1cc(Cl)cc(Cl)c1 (centres unmarked) [Example 13, 3-benzyl-1-(3,5-dichlorophenyl)-5-methoxy-1,3-dihydroindol-2-one]",> 10000,118 to 119
"O=C1C(Cc2ccccc2)c2cc(O)ccc2N1c1cc(Cl)cc(Cl)c1 (centres unmarked) [Example 14, 3-benzyl-1-(3,5-dichlorophenyl)-5-hydroxy-1,3-dihydroindol-2-one]",> 10000,232 to 235
"O=C1C(Cc2ccccc2)c2ccccc2N1c1cc(Cl)cc(Cl)c1 (centres unmarked) [Example 15, 3-benzyl-1-(3,5-dichlorophenyl)-1,3-dihydroindol-2-one]",4970,109 to 111
"CC1(Cc2ccccc2)C(=O)N(c2cc(Cl)cc(Cl)c2)c2cccc(O)c21 (centres unmarked) [Example 16, 3-benzyl-1-(3,5-dichlorophenyl)-4-hydroxy-3-methyl-1,3-dihydroindol-2-one]",1440,165 to 166.5
"O=C1C(Cc2ccc(Br)cc2)c2c(O)cccc2N1c1cc(Cl)cc(Cl)c1 (centres unmarked) [Example 17, 3-(4-bromobenzyl)-1-(3,5-dichlorophenyl)-4-hydroxy-1,3-dihydroindol-2-one]",917,203 to 208
